Laboratory results published in PubChem BioAssay AID330 (DTP/NCI, 2004).
Where “and” joins values, the source holds several entries; their conditions need not be identical. Equal entries are not always repeated. Toxic doses and inconclusive results are not listed. The calls were made as follows: active = survival T/C of 150% or more; inactive = T/C below 125% in these data.

System: P388 leukemia ip, CD2F1 mice, survival T/C
Assay: NCI In Vivo Anticancer Drug Screen. Data for tumor model P388 Leukemia (intraperitoneal) in CD2F1 (CDF1) mice
Settings: endpoint: median survival time, higher = longer survival
How it was run: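 Mice carrying the transplanted tumor received test compound or vehicle. Survival was recorded in each group, and the value is the treated-group measurement divided by that of the vehicle-treated control group.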

[1] = dose: 50.0 mg/kg/injection, schedule: Q01DX005 (ip), vehicle: Klucel (hydroxypropylcellulose) (HPC)
[2] = dose: 100.0 mg/kg/injection, schedule: Q04DX002 (ip), vehicle: Klucel (hydroxypropylcellulose) (HPC)
[3] = dose: 50.0 mg/kg/injection, schedule: Q01DX009 (ip), vehicle: Klucel (hydroxypropylcellulose) (HPC)
[4] = dose: 100.0 mg/kg/injection, schedule: Q01DX009 (ip), vehicle: Klucel (hydroxypropylcellulose) (HPC)
[5] = dose: 200.0 mg/kg/injection, schedule: Q01DX009 (ip), vehicle: Klucel (hydroxypropylcellulose) (HPC)
[6] = dose: 50.0 mg/kg/injection, schedule: Q01DX009 (ip), vehicle: saline with Tween-80
[7] = dose: 100.0 mg/kg/injection, schedule: Q01DX009 (ip), vehicle: saline with Tween-80
[8] = dose: 200.0 mg/kg/injection, schedule: Q01DX009 (ip), vehicle: saline with Tween-80
[9] = dose: 50.0 mg/kg/injection, schedule: Q01DX005 (ip), vehicle: saline with Tween-80
[10] = dose: 100.0 mg/kg/injection, schedule: Q01DX005 (ip), vehicle: saline with Tween-80
[11] = dose: 200.0 mg/kg/injection, schedule: Q01DX005 (ip), vehicle: saline with Tween-80
[12] = dose: 12.5 mg/kg/injection, schedule: Q01DX005 (ip), vehicle: Klucel (hydroxypropylcellulose) (HPC)
[13] = dose: 100.0 mg/kg/injection, schedule: Q04DX002 (ip), vehicle: saline with Tween-80
[14] = dose: 200.0 mg/kg/injection, schedule: Q04DX002 (ip), vehicle: saline with Tween-80
[15] = dose: 100.0 mg/kg/injection, schedule: Q01DX009 (ip), vehicle: saline
[16] = dose: 200.0 mg/kg/injection, schedule: Q01DX009 (ip), vehicle: saline

Measured: T/C

C=C(Cl)C(=NC(C)(C)C)Nc1c(Cl)cccc1Cl
inactive: [1] 98 % of control and 95 % of control | dose: 100.0 mg/kg/injection, schedule: Q01DX005 (ip), vehicle: Klucel (hydroxypropylcellulose) (HPC) 100 % of control | dose: 200.0 mg/kg/injection, schedule: Q01DX005 (ip), vehicle: Klucel (hydroxypropylcellulose) (HPC) 100 % of control and 90 % of control

O=C(O)c1cc(CCCC(=O)c2cc(C(=O)O)c(O)c3ccccc23)c2ccccc2c1O
inactive: [2] 90 % of control

O=C1CC2(CCCCC2)C(=O)N1c1ccc(S(=O)(=O)NC(=S)Nc2ccc(Br)cc2)cc1
inactive: [3] 98 % of control | [4] 95 % of control | [5] 104 % of control

COc1ccc(/C=N\NC(=O)C(=O)N/N=C\c2ccc(OC)c(OC)c2)cc1OC
inactive: dose: 12.5 mg/kg/injection, schedule: Q01DX009 (ip), vehicle: Klucel (hydroxypropylcellulose) (HPC) 93 % of control | dose: 25.0 mg/kg/injection, schedule: Q01DX009 (ip), vehicle: Klucel (hydroxypropylcellulose) (HPC) 93 % of control | [3] 86 % of control and 88 % of control

COc1ccccc1Cc1c(OC)cc(OC)c(C(=O)CCc2ccccc2)c1O
inactive: dose: 3.2 mg/kg/injection, schedule: Q01DX009 (ip), vehicle: other 100 % of control | dose: 4.3 mg/kg/injection, schedule: Q01DX009 (ip), vehicle: other 110 % of control | dose: 6.4 mg/kg/injection, schedule: Q01DX009 (ip), vehicle: other 100 % of control and 105 % of control | dose: 9.6 mg/kg/injection, schedule: Q01DX009 (ip), vehicle: other 114 % of control and 97 % of control | dose: 14.0 mg/kg/injection, schedule: Q01DX009 (ip), vehicle: other 89 % of control | dose: 28.0 mg/kg/injection, schedule: Q01DX009 (ip), vehicle: other 91 % of control

CC(=O)Nc1nc(C)c([N+](=O)[O-])s1
inactive: [6] 105 % of control | [7] 93 % of control | [8] 100 % of control

CN(C)CCCN1c2ccccc2Sc2ccc3ccccc3c21
inactive: [9] 104 % of control | [10] 102 % of control | [11] 104 % of control

CC(=O)n1nc(Cl)c2cccnc2c1=O
inactive: [9] 98 % of control | [10] 99 % of control | [11] 107 % of control

O=C1OCCC1C(=O)c1ccccc1 (stereo not given)
inactive: dose: 50.0 mg/kg/injection, schedule: Q01DX001 (ip), vehicle: saline 112 % of control | dose: 100.0 mg/kg/injection, schedule: Q01DX001 (ip), vehicle: saline 112 % of control | dose: 200.0 mg/kg/injection, schedule: Q01DX001 (ip), vehicle: saline 97 % of control

Cc1[nH]c2ccccc2c1CC[n+]1cccc(C#N)c1
inactive: dose: 3.12 mg/kg/injection, schedule: Q01DX005 (ip), vehicle: Klucel (hydroxypropylcellulose) (HPC) 108 % of control | dose: 6.25 mg/kg/injection, schedule: Q01DX005 (ip), vehicle: Klucel (hydroxypropylcellulose) (HPC) 100 % of control | [12] 103 % of control

O=[N+]([O-])c1cc2[nH]cnc2c([N+](=O)[O-])c1NCc1ccccc1
inactive: [13] 98 % of control | [14] 97 % of control

COC(=O)C(CSC(c1ccccc1)(c1ccccc1)c1ccccc1)NC(=O)CC(NC(=O)OCc1ccccc1)C(N)=O (stereo not given)
inactive: dose: 12.5 mg/kg/injection, schedule: Q01DX009 (ip), vehicle: distilled water + Tween-80 106 % of control | dose: 25.0 mg/kg/injection, schedule: Q01DX009 (ip), vehicle: distilled water + Tween-80 93 % of control | dose: 50.0 mg/kg/injection, schedule: Q01DX009 (ip), vehicle: distilled water + Tween-80 103 % of control | dose: 100.0 mg/kg/injection, schedule: Q01DX009 (ip), vehicle: distilled water + Tween-80 94 % of control | dose: 200.0 mg/kg/injection, schedule: Q01DX009 (ip), vehicle: distilled water + Tween-80 102 % of control

Cc1ccc(S(=O)(=O)N/N=C(\Cc2ccccc2)c2ccc(Br)cc2)cc1
inactive: [6] 99 % of control | [7] 99 % of control | [15] 98 % of control | [8] 90 % of control | [16] 98 % of control

CCOc1ccc(/C=N/NC(=S)NC23CC4CC(CC(C4)C2)C3)cc1OCC
inactive: dose: 30.0 mg/kg/injection, schedule: Q01DX005 (ip), vehicle: saline with Tween-80 108 % of control | dose: 60.0 mg/kg/injection, schedule: Q01DX005 (ip), vehicle: saline with Tween-80 102 % of control and 86 % of control | dose: 120.0 mg/kg/injection, schedule: Q01DX005 (ip), vehicle: saline with Tween-80 90 % of control

CNCCCc1cc(-c2ccc([N+](=O)[O-])cc2)n[nH]1
inactive: [2] 100 % of control | dose: 200.0 mg/kg/injection, schedule: Q04DX002 (ip), vehicle: Klucel (hydroxypropylcellulose) (HPC) 100 % of control

CC1=C[P+](c2ccccc2)(c2ccccc2)C=C(C)O1
inactive: dose: 3.12 mg/kg/injection, schedule: Q01DX005 (ip), vehicle: saline 96 % of control | dose: 6.25 mg/kg/injection, schedule: Q01DX005 (ip), vehicle: saline 105 % of control | dose: 12.5 mg/kg/injection, schedule: Q01DX005 (ip), vehicle: saline 105 % of control

FC(F)(F)C(F)(F)C(F)(F)c1nnc(-c2ccc(Cl)cc2Cl)o1
inactive: dose: 100.0 mg/kg/injection, schedule: Q01DX001 (ip), vehicle: saline with Tween-80 95 % of control | dose: 200.0 mg/kg/injection, schedule: Q01DX001 (ip), vehicle: saline with Tween-80 100 % of control | dose: 400.0 mg/kg/injection, schedule: Q01DX001 (ip), vehicle: saline with Tween-80 96 % of control

COc1ccc(Cc2cc(N=NC(N)=O)c(C)cc2O)cc1
inactive: [12] 106 % of control | dose: 25.0 mg/kg/injection, schedule: Q01DX005 (ip), vehicle: Klucel (hydroxypropylcellulose) (HPC) 94 % of control | [1] 97 % of control

COP1(OC)(OC)OC(C)=C(C)O1
inactive: dose: 50.0 mg/kg/injection, schedule: Q01DX009 (ip), vehicle: saline 86 % of control | [15] 94 % of control | [16] 86 % of control

[CH3][Sn]([c]1ccccc1)([c]1cccc2ccccc12)[c]1cccc2ccccc12
inactive: dose: 100.0 mg/kg/injection, schedule: Q04DX003 (ip), vehicle: saline with Tween-80 89 % of control | dose: 200.0 mg/kg/injection, schedule: Q04DX003 (ip), vehicle: saline with Tween-80 91 % of control | dose: 400.0 mg/kg/injection, schedule: Q04DX003 (ip), vehicle: saline with Tween-80 88 % of control

O=C(NC1C=Nc2ccc([N+](=O)[O-])cc2NC1=O)c1ccc(Cl)cc1 (stereo not given)
inactive: dose: 60.0 mg/kg/injection, schedule: Q01DX005 (ip), vehicle: Klucel (hydroxypropylcellulose) (HPC) 91 % of control | dose: 120.0 mg/kg/injection, schedule: Q01DX005 (ip), vehicle: Klucel (hydroxypropylcellulose) (HPC) 93 % of control | dose: 240.0 mg/kg/injection, schedule: Q01DX005 (ip), vehicle: Klucel (hydroxypropylcellulose) (HPC) 92 % of control

CCOC(=O)C(C(=O)OCC)C1CCS(=O)(=O)C1 (stereo not given)
inactive: [7] 109 % of control | [8] 104 % of control | dose: 400.0 mg/kg/injection, schedule: Q01DX009 (ip), vehicle: saline with Tween-80 104 % of control

COc1ccc([N+](=O)[O-])cc1NS(=O)(=O)c1ccc(NC(C)=O)cc1
inactive: [3] 100 % of control | [4] 99 % of control | [5] 99 % of control

O=C1C=CCCCC1(c1ccccc1)c1ccccc1
inactive: [13] 96 % of control | [14] 96 % of control | dose: 400.0 mg/kg/injection, schedule: Q04DX002 (ip), vehicle: saline with Tween-80 96 % of control
